# Data published in PubChem BioAssay AID1963968 (Molecular Pharmacology Branch, DTP, NCI, 2024).
# System: 945468-187-T-J3-PDC spheroids with HUVEC/MSC, viability
# Assay: Anticancer human tumor 945468-187-T-J3-PDC patient-derived rectal carcinoma cell line growth inhibition [PI3K]
# Conditions: for IC50: curve of first compound; for viability, T/C: stronger effect = lower value
# Procedure, shortened: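 Tumor cells grown as multi-cell spheroids with HUVEC endothelial cells and MSC fibroblast-like stroma were treated with targeted agents combined with inavolisib, alpelisib, duvelisib or copanlisib. Doses fell in half-log steps from near clinical Cmax, else from 10 microM. Viability was measured.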
# [1] = second compound 0.00316 µM, first compound 0.000316 µM
# [2] = second compound 0.00316 µM, first compound 0.001 µM
# [3] = second compound 0.00316 µM, first compound 0.00316 µM
# [4] = second compound 0.00316 µM, first compound 0.01 µM
# [5] = second compound 0.00316 µM, first compound 0.0316 µM
# [6] = second compound 0.00316 µM, first compound 0.1 µM
# [7] = second compound 0.01 µM, first compound 0.000316 µM
# [8] = second compound 0.01 µM, first compound 0.001 µM
# [9] = second compound 0.01 µM, first compound 0.00316 µM
# [10] = second compound 0.01 µM, first compound 0.01 µM
# [11] = second compound 0.01 µM, first compound 0.0316 µM
# [12] = second compound 0.01 µM, first compound 0.1 µM
# [13] = second compound 0.0316 µM, first compound 0.000316 µM
# [14] = second compound 0.0316 µM, first compound 0.001 µM
# [15] = second compound 0.0316 µM, first compound 0.00316 µM
# [16] = second compound 0.0316 µM, first compound 0.01 µM
# [17] = second compound 0.0316 µM, first compound 0.0316 µM
# [18] = second compound 0.0316 µM, first compound 0.1 µM
# [19] = second compound 0.1 µM, first compound 0.000316 µM
# [20] = second compound 0.1 µM, first compound 0.001 µM
# [21] = second compound 0.1 µM, first compound 0.00316 µM
# [22] = second compound 0.1 µM, first compound 0.01 µM
# [23] = second compound 0.1 µM, first compound 0.0316 µM
# [24] = second compound 0.1 µM, first compound 0.1 µM
# [25] = second compound 0.316 µM, first compound 0.000316 µM
# [26] = second compound 0.316 µM, first compound 0.001 µM
# [27] = second compound 0.316 µM, first compound 0.00316 µM
# [28] = second compound 0.316 µM, first compound 0.01 µM
# [29] = second compound 0.316 µM, first compound 0.0316 µM
# [30] = second compound 0.316 µM, first compound 0.1 µM
# [31] = second compound 1 µM, first compound 0.000316 µM
# [32] = second compound 1 µM, first compound 0.001 µM
# [33] = second compound 1 µM, first compound 0.00316 µM
# [34] = second compound 1 µM, first compound 0.01 µM
# [35] = second compound 1 µM, first compound 0.0316 µM
# [36] = second compound 1 µM, first compound 0.1 µM
# 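Note: spheroids exposed to agents for 7 days before viability read.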
# 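Throughout, for viability, T/C: 100% = DMSO vehicle control viability.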
structure (smiles),measurement,setting,value
CC(=O)c1c(C)c2cnc(Nc3ccc(N4CCNCC4)cn3)nc2n(C2CCCC2)c1=O + COc1c(OCCCN2CCOCC2)ccc2c3n(c(=NC(=O)c4cnc(N)nc4)nc12)CCN3,IC50,second compound 0.00316 µM,> 100 nM
same,IC50,second compound 0.01 µM,> 100 nM
same,IC50,second compound 0.0316 µM,> 100 nM
same,IC50,second compound 0.1 µM,< 0.316 nM
same,IC50,second compound 0.316 µM,< 0.316 nM
same,IC50,second compound 1 µM,< 0.316 nM
same,"viability, T/C",[1],99%
same,"viability, T/C",[2],106%
same,"viability, T/C",[3],118%
same,"viability, T/C",[4],92.3%
same,"viability, T/C",[5],103%
same,"viability, T/C",[6],101%
same,"viability, T/C",[7],92.4%
same,"viability, T/C",[8],87.1%
same,"viability, T/C",[9],90.3%
same,"viability, T/C",[10],97.5%
same,"viability, T/C",[11],95.7%
same,"viability, T/C",[12],104%
same,"viability, T/C",[13],82.9%
same,"viability, T/C",[14],90.3%
same,"viability, T/C",[15],89.9%
same,"viability, T/C",[16],85.2%
same,"viability, T/C",[17],89%
same,"viability, T/C",[18],74.8%
same,"viability, T/C",[19],43.1%
same,"viability, T/C",[20],48.6%
same,"viability, T/C",[21],48.7%
same,"viability, T/C",[22],37.6%
same,"viability, T/C",[23],37.9%
same,"viability, T/C",[24],32.5%
same,"viability, T/C",[25],23%
same,"viability, T/C",[26],20.6%
same,"viability, T/C",[27],20%
same,"viability, T/C",[28],19.2%
same,"viability, T/C",[29],19.6%
same,"viability, T/C",[30],17.6%
same,"viability, T/C",[31],16%
same,"viability, T/C",[32],17.7%
same,"viability, T/C",[33],16.7%
same,"viability, T/C",[34],16.2%
same,"viability, T/C",[35],13.6%
same,"viability, T/C",[36],14.1%
CC(C)n1nc(-c2ccc3oc(N)nc3c2)c2c(N)ncnc21 + COc1c(OCCCN2CCOCC2)ccc2c3n(c(=NC(=O)c4cnc(N)nc4)nc12)CCN3,IC50,second compound 0.00316 µM,76.1 nM
same,IC50,second compound 0.01 µM,62.6 nM
same,IC50,second compound 0.0316 µM,25.6 nM
same,IC50,second compound 0.1 µM,< 0.316 nM
same,IC50,second compound 0.316 µM,< 0.316 nM
same,IC50,second compound 1 µM,< 0.316 nM
same,"viability, T/C",[1],104%
same,"viability, T/C",[2],85.7%
same,"viability, T/C",[3],95.1%
same,"viability, T/C",[4],78.7%
same,"viability, T/C",[5],92.8%
same,"viability, T/C",[6],37.2%
same,"viability, T/C",[7],97.2%
same,"viability, T/C",[8],81.2%
same,"viability, T/C",[9],93.9%
same,"viability, T/C",[10],86.2%
same,"viability, T/C",[11],90.4%
same,"viability, T/C",[12],22.7%
same,"viability, T/C",[13],88.7%
same,"viability, T/C",[14],77.2%
same,"viability, T/C",[15],85%
same,"viability, T/C",[16],78.4%
same,"viability, T/C",[17],43.6%
same,"viability, T/C",[18],17.1%
same,"viability, T/C",[19],46%
same,"viability, T/C",[20],34%
same,"viability, T/C",[21],33.9%
same,"viability, T/C",[22],26.2%
same,"viability, T/C",[23],20.2%
same,"viability, T/C",[24],13.6%
same,"viability, T/C",[25],20.6%
same,"viability, T/C",[26],21.3%
same,"viability, T/C",[27],21.6%
same,"viability, T/C",[28],17.6%
same,"viability, T/C",[29],16.6%
same,"viability, T/C",[30],13.7%
same,"viability, T/C",[31],18.5%
same,"viability, T/C",[32],15.9%
same,"viability, T/C",[33],14.1%
same,"viability, T/C",[34],13.2%
same,"viability, T/C",[35],12.6%
same,"viability, T/C",[36],10.5%
CCCS(=O)(=O)Nc1ccc(F)c(C(=O)c2c[nH]c3ncc(-c4ccc(Cl)cc4)cc23)c1F + COc1c(OCCCN2CCOCC2)ccc2c3n(c(=NC(=O)c4cnc(N)nc4)nc12)CCN3,IC50,second compound 0.00316 µM,> 10000 nM
same,IC50,second compound 0.01 µM,> 10000 nM
same,IC50,second compound 0.0316 µM,7310 nM
same,IC50,second compound 0.1 µM,< 31.6 nM
same,IC50,second compound 0.316 µM,< 31.6 nM
same,IC50,second compound 1 µM,< 31.6 nM
same,"viability, T/C",[5],106%
same,"viability, T/C",[6],81%
same,"viability, T/C","second compound 0.00316 µM, first compound 0.316 µM",88.9%
same,"viability, T/C","second compound 0.00316 µM, first compound 1 µM",77.7%
same,"viability, T/C","second compound 0.00316 µM, first compound 3.16 µM",87.2%
same,"viability, T/C","second compound 0.00316 µM, first compound 10 µM",52.3%
same,"viability, T/C",[11],86.6%
same,"viability, T/C",[12],77.3%
same,"viability, T/C","second compound 0.01 µM, first compound 0.316 µM",86.2%
same,"viability, T/C","second compound 0.01 µM, first compound 1 µM",87.7%
same,"viability, T/C","second compound 0.01 µM, first compound 3.16 µM",95.8%
same,"viability, T/C","second compound 0.01 µM, first compound 10 µM",74.2%
same,"viability, T/C",[17],83.8%
same,"viability, T/C",[18],89.4%
same,"viability, T/C","second compound 0.0316 µM, first compound 0.316 µM",79.1%
same,"viability, T/C","second compound 0.0316 µM, first compound 1 µM",89.6%
same,"viability, T/C","second compound 0.0316 µM, first compound 3.16 µM",86.1%
same,"viability, T/C","second compound 0.0316 µM, first compound 10 µM",36.7%
same,"viability, T/C",[23],42.2%
same,"viability, T/C",[24],48.9%
same,"viability, T/C","second compound 0.1 µM, first compound 0.316 µM",38.2%
same,"viability, T/C","second compound 0.1 µM, first compound 1 µM",43.6%
same,"viability, T/C","second compound 0.1 µM, first compound 3.16 µM",28.7%
same,"viability, T/C","second compound 0.1 µM, first compound 10 µM",8.36%
same,"viability, T/C",[29],18.8%
same,"viability, T/C",[30],20.2%
same,"viability, T/C","second compound 0.316 µM, first compound 0.316 µM",20.1%
same,"viability, T/C","second compound 0.316 µM, first compound 1 µM",22.2%
same,"viability, T/C","second compound 0.316 µM, first compound 3.16 µM",20.9%
same,"viability, T/C","second compound 0.316 µM, first compound 10 µM",7.04%
same,"viability, T/C",[35],15.5%
same,"viability, T/C",[36],16.1%
same,"viability, T/C","second compound 1 µM, first compound 0.316 µM",18.2%
same,"viability, T/C","second compound 1 µM, first compound 1 µM",18.5%
same,"viability, T/C","second compound 1 µM, first compound 3.16 µM",15.2%
same,"viability, T/C","second compound 1 µM, first compound 10 µM",6.57%
